The results in this text go back to patent EP0183129A1, “Quinolonecarboxylic acid derivatives” (KYORIN PHARMACEUTICAL CO., LTD., priority 1984, dated 1986).

Assay [1] relates to S. aureus IID 670 (Terajima). The assay is described as follows: In vitro antibacterial activity, MIC (standard strain). It is filed as cell-based, Staphylococcus aureus. Particulars: S. aureus IID 670 (Terajima); 10^6 cells/ml; standard strain; listed as Exp.4.
The test system of another assay is S. epidermidis IID 866. Described as above. It is filed as cell-based. Particulars: S. epidermidis IID 866; 10^6 cells/ml; standard strain; listed as Exp.4.
Assay [2] has as its system Escherichia coli NIHJ JC-2. The description is as above. Type of assay: cell-based. The conditions noted are these: Escherichia coli NIHJ JC-2; 10^6 cells/ml; standard strain; listed as Exp.4.
In assay [3] the test system is Enterobacter cloacae IID 977. Described as above. The conditions noted are these: Enterobacter cloacae IID 977; 10^6 cells/ml; standard strain; listed as Exp.4. Type of assay: cell-based.
The subject of assay [4] is Serratia marcescens IID 618. Described as above. Type of assay: cell-based. The conditions noted are these: Serratia marcescens IID 618; 10^6 cells/ml; standard strain; listed as Exp.4.
Another assay deals with P. aeruginosa IFO 12689. The assay is described as above. It is filed as cell-based, Pseudomonas aeruginosa. Particulars: P. aeruginosa IFO 12689; 10^6 cells/ml; standard strain.
In assay [5] the test system is Acinetobacter anitratus IID 876. The description is as above. Type of assay: cell-based. Particulars: Acinetobacter anitratus IID 876; 10^6 cells/ml; standard strain; listed as Exp.4.
For assay [6], the system named is Alcaligenes faecalis 0104002. The description is as above. Type of assay: cell-based. The conditions noted are these: Alcaligenes faecalis 0104002; 10^6 cells/ml; standard strain; listed as Exp.4.
The next assay relates to B. fragilis 0558. The description is as above. The conditions noted are these: B. fragilis 0558; 10^6 cells/ml; standard strain; listed as Exp.4. Type of assay: cell-based, Bacteroides fragilis.
The next assay concerns B. fragilis 25285. Described as above. The conditions noted are these: B. fragilis 25285; 10^6 cells/ml; standard strain; listed as Exp.4. It is filed as cell-based, Bacteroides fragilis.
For assay [7], the system named is Fusobacterium varium KYA 8501. Described as above. It is filed as cell-based. Particulars: Fusobacterium varium KYA 8501; 10^6 cells/ml; standard strain; listed as Exp.4.
Another assay deals with E. coli ML4707. The assay is described as follows: In vivo antibacterial activity against systemic infection in mice. Also on record: species or system mice (ICR-S). Particulars: Escherichia coli, ML4707; mice (ICR-S); oral, an hour after intraperitoneal infection; challenge dose 2.7 x 10^6 ~ 8.8 x 10^6 cfu/mouse; read-out: ED50 E. coli ML4707. The protocol: (§1) Experiment-2 In vivo antibacterial activity against systemic infection in mice (ICR-S)
(§2) The infections were produced by intraperitoneal injection of a suspension of the bacterial culture corresponding to the germ studied. The products were administered orally at an hour after the infection.

For the next assay, the system named is S. aureus Smith. The description is as above. Further details: species or system mice (ICR-S). Particulars: Staphylococcus aureus, po, mice (ICR-S), an hour after intraperitoneal infection. Here is the method:
as §1, §2

Another assay deals with S. pneumoniae S-4288. The description is as above. Further details: species or system mice (ICR-S). The conditions noted are these: Streptococcus pneumoniae, S4288; mice (ICR-S); oral, an hour after intraperitoneal infection; challenge dose 7.5 x 10^4 ~ 4.8 x 10^6 cfu/mouse; read-out: ED50 S. pneumoniae S-4288. The protocol:
as §1, §2

A further assay has as its system M. pneumoniae Mac. The assay is described as follows: In vitro antibacterial activity against Mycoplasma, MIC. Type of assay: cell-based. Particulars: Mycoplasmoides pneumoniae, 120 h; M. pneumoniae Mac.; no visible growth after incubation for 5 days; read-out: MIC. The text has this: Experiment-3 In vitro antibacterial activity against Mycoplasma

In brackets after ≈: the same amount, converted by molar mass. Read-outs that look alike come from different tables or passages of the source.

As a reminder, the MIC is the least concentration at which growth counts as inhibited. By ED50 is commonly meant the midpoint of the dose-response relation. `NCC1CCN(c2c(F)cc3c(=O)c(C(=O)O)cn(C4CC4)c3c2F)C1` (stereo not shown) [Example 4, 7-(3-Aminomethyl-1-pyrrolidinyl)-1-cyclopropyl-6,8-difluoro-1,4-dihydro-4-oxo-3-quinolinecarboxylic acid]: the MIC in assay [1] was found to be 0.025 µg/mL (≈ 0.0688 µM); in the assay on S. epidermidis IID 866 it was 0.025 µg/mL (≈ 0.0688 µM); in assay [2], 0.0125 µg/mL (≈ 0.0344 µM); in assay [3], 0.05 µg/mL (≈ 0.138 µM); in [4], 0.10 µg/mL (≈ 0.275 µM); against P. aeruginosa IFO 12689, 0.39 µg/mL (≈ 1.07 µM). Besides, the MIC in assay [5] was 0.05 µg/mL (≈ 0.138 µM); in assay [6] it was 0.78 µg/mL (≈ 2.15 µM); in the assay on B. fragilis 0558, 0.78 µg/mL (≈ 2.15 µM); against B. fragilis 25285 it was 0.78 µg/mL (≈ 2.15 µM); in assay [7] it was 1.56 µg/mL (≈ 4.29 µM); in the assay with M. pneumoniae Mac., 0.025 µg/mL (≈ 0.0688 µM). Besides, the ED50 in the assay on E. coli ML4707 came out at 3 mg/kg; in the assay on S. aureus Smith (challenge dose 5.5 x 10^5 cfu/mouse, n=5, read-out: ED50 against S. aureus Smith), 1.57 mg/kg; with S. aureus Smith (challenge dose 6.0 x 10^5 cfu/mouse, read-out: ED50 S. aureus Smith), 1.8 mg/kg; in the assay with S. pneumoniae S-4288 it was 13.8 mg/kg.
